{"source": "paper PMC10573198", "about": "“Synthesis, Physicochemical Characterization using a Facile Validated HPLC Quantitation Analysis Method of 4-Chloro-phenylcarbamoyl-methyl Ciprofloxacin and Its Biological Investigations” (International Journal of Molecular Sciences, 2023)", "key": {"Topoisomerase IV": {"target": "T1, Topoisomerase IV (Staphylococcus aureus, UniProt P0C1S7+Q2FYS4)", "T1 construct": "gene parC; with Topoisomerase IV subunit B (ParE); kDNA substrate", "T1 sequence (Q2FYS4 whole entry)": "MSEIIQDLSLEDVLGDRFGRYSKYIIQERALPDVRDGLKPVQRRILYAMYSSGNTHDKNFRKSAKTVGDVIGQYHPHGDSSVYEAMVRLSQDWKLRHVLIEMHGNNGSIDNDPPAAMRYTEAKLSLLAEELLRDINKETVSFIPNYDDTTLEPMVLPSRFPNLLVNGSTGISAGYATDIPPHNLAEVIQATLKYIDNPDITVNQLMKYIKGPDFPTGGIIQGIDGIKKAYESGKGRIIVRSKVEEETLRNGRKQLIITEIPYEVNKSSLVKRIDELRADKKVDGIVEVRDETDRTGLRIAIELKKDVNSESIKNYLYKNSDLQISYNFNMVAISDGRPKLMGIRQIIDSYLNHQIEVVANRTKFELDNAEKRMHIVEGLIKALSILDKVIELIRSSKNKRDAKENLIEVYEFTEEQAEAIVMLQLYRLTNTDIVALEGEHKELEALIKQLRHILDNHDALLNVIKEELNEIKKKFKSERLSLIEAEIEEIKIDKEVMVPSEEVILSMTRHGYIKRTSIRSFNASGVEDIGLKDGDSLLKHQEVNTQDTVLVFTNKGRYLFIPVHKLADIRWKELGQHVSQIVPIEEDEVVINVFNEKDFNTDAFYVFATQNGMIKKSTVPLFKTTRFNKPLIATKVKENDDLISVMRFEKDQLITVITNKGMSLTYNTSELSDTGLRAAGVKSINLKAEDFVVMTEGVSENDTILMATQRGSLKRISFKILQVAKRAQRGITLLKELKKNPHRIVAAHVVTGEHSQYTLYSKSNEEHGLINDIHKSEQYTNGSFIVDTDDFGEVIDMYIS", "T1 sequence (P0C1S7 whole entry)": "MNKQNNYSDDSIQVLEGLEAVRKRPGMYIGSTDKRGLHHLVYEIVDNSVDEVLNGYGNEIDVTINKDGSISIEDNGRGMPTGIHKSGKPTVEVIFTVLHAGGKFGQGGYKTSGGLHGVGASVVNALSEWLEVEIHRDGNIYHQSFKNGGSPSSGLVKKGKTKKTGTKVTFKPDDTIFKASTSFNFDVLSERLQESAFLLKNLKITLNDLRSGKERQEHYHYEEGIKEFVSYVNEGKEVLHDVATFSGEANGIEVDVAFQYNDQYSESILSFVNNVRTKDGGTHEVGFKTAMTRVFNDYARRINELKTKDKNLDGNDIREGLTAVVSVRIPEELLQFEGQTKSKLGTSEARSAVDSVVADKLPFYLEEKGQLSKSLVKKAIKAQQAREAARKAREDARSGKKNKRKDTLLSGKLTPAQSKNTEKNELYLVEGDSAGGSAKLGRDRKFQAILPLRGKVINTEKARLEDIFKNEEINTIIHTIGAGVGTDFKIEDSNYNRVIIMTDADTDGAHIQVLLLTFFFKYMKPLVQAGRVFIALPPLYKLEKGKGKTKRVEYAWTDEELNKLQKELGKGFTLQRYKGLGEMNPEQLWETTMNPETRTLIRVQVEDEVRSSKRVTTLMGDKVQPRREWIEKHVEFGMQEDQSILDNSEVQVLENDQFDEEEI", "assay": "Topo IV kDNA decatenation assay, agarose gel", "format": "biochemical"}, "DNA gyrase": {"target": "T2, DNA gyrase (Staphylococcus aureus, UniProt P0A0K8+P20831)", "T2 construct": "gene gyrA; with DNA gyrase subunit B (GyrB); plasmid DNA", "T2 sequence (P0A0K8 2-644)": "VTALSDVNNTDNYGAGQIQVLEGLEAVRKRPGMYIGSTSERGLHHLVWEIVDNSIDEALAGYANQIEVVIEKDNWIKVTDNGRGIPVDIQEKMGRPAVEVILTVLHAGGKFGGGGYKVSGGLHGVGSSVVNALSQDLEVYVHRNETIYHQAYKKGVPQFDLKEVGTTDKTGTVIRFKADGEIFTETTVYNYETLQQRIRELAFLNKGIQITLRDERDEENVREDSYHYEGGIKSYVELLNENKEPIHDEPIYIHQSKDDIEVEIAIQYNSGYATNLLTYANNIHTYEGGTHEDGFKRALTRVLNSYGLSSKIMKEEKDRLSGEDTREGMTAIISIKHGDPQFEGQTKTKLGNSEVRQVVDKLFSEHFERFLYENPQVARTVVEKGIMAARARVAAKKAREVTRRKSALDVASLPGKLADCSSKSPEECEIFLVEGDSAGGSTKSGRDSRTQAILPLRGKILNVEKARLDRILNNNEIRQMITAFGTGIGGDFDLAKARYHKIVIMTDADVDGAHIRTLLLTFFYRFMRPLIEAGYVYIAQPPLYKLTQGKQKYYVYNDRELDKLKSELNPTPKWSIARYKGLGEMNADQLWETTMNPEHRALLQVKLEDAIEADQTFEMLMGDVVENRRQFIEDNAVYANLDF", "T2 sequence (P20831 whole entry)": "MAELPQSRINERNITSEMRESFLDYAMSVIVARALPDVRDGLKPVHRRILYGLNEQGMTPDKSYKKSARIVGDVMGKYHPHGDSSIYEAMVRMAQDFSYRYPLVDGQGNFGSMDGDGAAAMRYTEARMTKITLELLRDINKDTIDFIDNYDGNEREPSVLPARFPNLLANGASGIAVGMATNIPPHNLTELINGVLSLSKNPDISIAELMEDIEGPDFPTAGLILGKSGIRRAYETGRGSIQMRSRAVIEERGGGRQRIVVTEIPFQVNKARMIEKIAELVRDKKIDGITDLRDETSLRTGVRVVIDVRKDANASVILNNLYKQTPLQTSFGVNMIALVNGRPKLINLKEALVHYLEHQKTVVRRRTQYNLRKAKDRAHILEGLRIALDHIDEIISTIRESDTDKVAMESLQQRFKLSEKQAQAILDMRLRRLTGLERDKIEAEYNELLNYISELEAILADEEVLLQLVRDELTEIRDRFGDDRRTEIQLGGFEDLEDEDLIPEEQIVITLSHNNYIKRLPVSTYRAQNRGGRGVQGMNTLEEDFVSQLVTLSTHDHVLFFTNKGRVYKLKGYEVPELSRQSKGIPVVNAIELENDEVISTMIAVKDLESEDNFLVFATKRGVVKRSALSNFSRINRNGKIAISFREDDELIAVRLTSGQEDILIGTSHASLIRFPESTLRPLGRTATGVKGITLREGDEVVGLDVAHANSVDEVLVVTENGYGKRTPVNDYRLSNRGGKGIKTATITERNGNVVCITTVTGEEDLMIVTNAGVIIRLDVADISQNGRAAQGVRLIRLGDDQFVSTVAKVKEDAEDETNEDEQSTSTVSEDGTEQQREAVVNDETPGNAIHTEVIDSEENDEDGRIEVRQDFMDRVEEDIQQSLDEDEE", "assay": "S. aureus gyrase supercoiling assay, relaxed pBR322, agarose gel", "format": "biochemical"}}}
{"smiles": "O=C(CN1CCN(c2cc3c(cc2F)c(=O)c(C(=O)O)cn3C2CC2)CC1)Nc1ccc(Cl)cc1", "note": "[Cpx-Drv]", "values": [{"measurement": "IC50", "setting": "Topoisomerase IV", "result": 3.83, "unit": "µM"}, {"measurement": "IC50", "setting": "DNA gyrase", "result": 13.5, "unit": "µM"}]}
